Key:
MRSA ATCC 33591 [1] = assay: Antimicrobial-resistance test; assay type: cell-based, methicillin-resistant Staphylococcus aureus; settings: for increase in MIC after continuous 14 passages exposure: MRSA ATCC 33591, 1/2 × MIC
[2] = tested on: K. pneumoniae ATCC 700603; assay: Antimicrobial-resistance test; assay type: cell-based, Klebsiella pneumoniae; settings: 1/2 × MIC
MRSA ATCC 33591 [3] = assay: ROS accumulation assay; assay type: cell-based, methicillin-resistant Staphylococcus aureus; settings: 2 × MIC and 4 × MIC
MRSA ATCC 33591 [4] = assay: Bacteria-induced pneumonia model; assay type: in vivo, Kunming mice; settings: MRSA ATCC 33591 pneumonia model
[5] = tested on: K. pneumoniae ATCC 700603; assay: ROS accumulation assay; assay type: cell-based, Klebsiella pneumoniae; settings: 1 ×, 2 ×, 4 × MIC
[6] = tested on: K. pneumoniae ATCC 700603; assay: Bacteria-induced pneumonia model; assay type: in vivo, Kunming mice
[7] = RT-qPCR of Cystatin C, Lipocalin 2, Havcr1 mRNA in kidney; assay type: in vivo, Kunming mice; settings: AMP 1003 20 or 30 mg/kg; polymyxin B 20 mg/kg
[8] = Renal tubular injury score; settings: AMP 1003 20 or 30 mg/kg; polymyxin B 20 mg/kg; score 0-5
[9] = ELISA of NGAL, Cystatin C and Kim-1 in serum and urine; settings: 20 mg/kg or 30 mg/kg; 7 days
[10] = In vivo toxicity assay, single intraperitoneal injection
[11] = tested on: multidrug-resistant bacteria; settings: cited from earlier work
mammalian cells = settings: cited from earlier work

CNC(C)C1CCC(N)C(OC2C(N)CC(N)C(OC3OCC(C)(O)C(NC)C3O)C2O)O1 (centres unmarked) [Gentamicin]
increase in MIC after continuous 14 passages exposure (MRSA ATCC 33591 [1]): up to 128 fold | increase in MIC (cross-resistance) (MRSA ATCC 33591 [1]; final generation of MRSA ATCC 33591 treated with the peptide for 14 passages): 128 fold | increase in MIC after continuous 14 passages exposure [2]: up to 512 fold

C[C@@H](O)[C@H]1C(=O)N2C(C(=O)O)=C(SCCN=CN)C[C@H]12 [Imipenem]
increase in MIC after continuous 14 passages exposure (MRSA ATCC 33591 [1]): up to 8 fold | increase in MIC after continuous 14 passages exposure [2]: up to 16 fold

CN(C)c1ccc(O)c2c1C[C@H]1C[C@H]3[C@H](N(C)C)C(O)=C(C(N)=O)C(=O)[C@@]3(O)C(O)=C1C2=O [Minocycline]
increase in MIC after continuous 14 passages exposure [2]: up to 8 fold

CN[C@H](CC(C)C)C(=O)N[C@H]1C(=O)N[C@@H](CC(N)=O)C(=O)N[C@H]2C(=O)N[C@H]3C(=O)N[C@H](C(=O)N[C@H](C(=O)O)c4cc(O)cc(O)c4-c4cc3ccc4O)[C@H](O)c3ccc(c(Cl)c3)Oc3cc2cc(c3O[C@@H]2O[C@H](CO)[C@@H](O)[C@H](O)[C@H]2O[C@H]2C[C@](C)(N)[C@H](O)[C@H](C)O2)Oc2ccc(cc2Cl)[C@H]1O [Vancomycin]
ROS accumulation (MRSA ATCC 33591 [3]): no such effect | lung histology (H&E) (MRSA ATCC 33591 [4]): substantially alleviated these pathological changes

Polymyxin B
ROS accumulation [5]: ROS elevation was observed only at 2 × MIC and 4 × MIC | lung histology (H&E) ([6]; K. pneumoniae ATCC 700603 pneumonia model): substantially alleviated these pathological changes | decrease of bacterial load in the lungs ([6]; K. pneumoniae ATCC 700603 pneumonia, 5 mg/kg i.p. at 4, 8, 12 h, 24 h, n = 6): 1.58 log10CFU | Cystatin C, Lipocalin 2 and Havcr1 mRNA in the kidneys [7]: notable increase in Cystatin C and Lipocalin 2 mRNA levels | renal tubular injury scores [8]: significantly higher injury scores than normal mice | NGAL, Cystatin C and Kim-1 levels in serum or urine [9]: did not cause noticeable changes | organ indices (heart, liver, spleen, lung, kidney) ([10]; 7 days, vs control group): higher than that in the control group | BUN and CREA levels ([10]; 7 days, AMP 1003 20, 30 or 40 mg/kg, polymyxin B 20 mg/kg): comparable to that of control group | hepatotoxicity (ALT, AST) ([10]; 7 days, AMP 1003 all doses, polymyxin B 20 mg/kg): no apparent hepatotoxicity | organ histology (H&E) ([10]; AMP 1003: only at 40 mg/kg): more severe tissue damage

melittin
MIC [11]: 1 to 16 µM | concentration causing cytotoxicity and hemolysis (mammalian cells): 2000 nM

Reference: PMC12647143 (Nature Communications, 2025)
